Series [1] addresses p38 MAPKα isoform (MAPK14) (Homo sapiens (Human), UniProt Q16539). The series can be described thus: p38 MAPKα enzyme inhibition (FRET, Z-LYTE). It counts as biochemical. As for the experimental part: The enzyme inhibitory activities of compounds disclosed herein were determined by FRET using synthetic peptides labelled with both donor and acceptor fluorophores (Z-LYTE, Invitrogen Ltd., Paisley, UK). The inhibitory activities of test compounds against the p38 MAPKα isoform (MAPK14: Invitrogen), were evaluated indirectly by determining the level of activation/phosphorylation of the down-stream molecule, MAPKAP-K2. […] The mixture was incubated for 1 hr at RT. Development reagent (protease, 5 μL) was added for 1 hr prior to detection in a fluorescence microplate reader (Varioskan® Flash, ThermoFisher Scientific). In all cases, the site-specific protease cleaves non-phosphorylated peptide only and eliminates the FRET signal. Phosphorylation levels of each reaction were calculated using the ratio of coumarin emission (donor) over fluorescein emission (acceptor), for which low ratios indicate high phosphorylation and high ratios indicate low phosphorylation levels.

The subject of a further series is d-U937 cells. The series can be described thus: Cell viability: MTT assay. It counts as cell-based, human. The following applies: 1 μg/mL. As to the method: Differentiated U937 cells were pre-incubated with each test compound (final concentration 1 μg/mL or 10 μg/mL in 200 μL media indicated below) under two protocols: the first for 4 hr in 5% FCS RPMI1640 media and the second in 10% FCS RPMI1640 media for 24 h. The supernatant was replaced with new media (200 μL) and MTT stock solution (10 μL, 5 mg/mL) was added to each well. After incubation for 1 hr the media were removed, DMSO (200 μL) was added to each well and the plates were shaken lightly for 1 hr prior to reading the absorbance at 550 nm. The percentage loss of cell viability was calculated for each well relative to vehicle (0.5% DMSO) treatment. Consequently an apparent increase in cell viability for drug treatment relative to vehicle is tabulated as a negative percentage.
(In general: Formazan colour is commonly taken as a measure of viable cells.)

Series [2] concerns ICAM-1 expression in BEAS2B cells. In words: Poly I:C-induced ICAM-1 expression in BEAS2B cells. It counts as cell-based, human. The following applies: Homo sapiens, BEAS-2B, read-out: PolyIC/ICAM1 IC50 (BEAS2B). As for the experimental part:
Poly I:C was used in these studies as a simple, RNA virus mimic. Poly I:C-Oligofectamine mixture (1 μg/mL Poly I:C, ±2% Oligofectamine, 25 μL; Invivogen Ltd., San Diego, Calif., and Invitrogen, Carlsbad, Calif., respectively) was transfected into BEAS2B cells (human bronchial epithelial cells, ATCC). Cells were pre-incubated with final concentrations of test compounds for 2 hr and the level of ICAM-1 expression on the cell surface was determined by cell-based ELISA. At a time point 18 hr after poly I:C transfection, cells were fixed with 4% formaldehyde in PBS (100 μL) and then endogenous peroxidase was quenched by the addition of washing buffer (100 μL, 0.05% Tween in PBS: PBS-Tween) containing 0.1% sodium azide and 1% hydrogen peroxide. Cells were washed with wash-buffer (3×200 μL). and after blocking the wells with 5% milk in PBS-Tween (100 μL) for 1 hr, the cells were incubated with anti-human ICAM-1 antibody (50 μL; Cell Signaling Technology, Danvers, Mass.) in 1% BSA PBS overnight at 4° C.
The cells were washed with PBS-Tween (3×200 μL) and incubated with the secondary antibody (100 μL; HRP-conjugated anti-rabbit IgG, Dako Ltd., Glostrup, Denmark). The cells were then incubated with of substrate (50 μL) for 2-20 min, followed by the addition of stop solution (50 μL, 1N H2SO4). The ICAM-1 signal was detected by reading […] the absorbance at 450 nm against a reference wavelength of 655 nm using a spectrophotometer. The cells were then washed with PBS-Tween (3×200 μL) and total cell numbers in each well were determined by reading absorbance at 595 nm after Crystal Violet staining (50 μL of a 2% solution in PBS) and elution by 1% SDS solution (100 μL) in distilled water. The measured OD 450-655 readings were corrected for cell number by dividing with the OD595 reading in each well. The inhibition of ICAM-1 expression was calculated at each concentration of test compound by comparison with vehicle control.

A further series has as its target p38MAPKγ (MAPK12) (Homo sapiens (Human), UniProt P53778). The series can be described thus: p38 MAPKγ enzyme inhibition (FRET, Z-LYTE). It counts as biochemical. As for the experimental part:
The enzyme inhibitory activities of compounds disclosed herein were determined by FRET using synthetic peptides labelled with both donor and acceptor fluorophores (Z-LYTE, Invitrogen Ltd., Paisley, UK). […] Development reagent (protease, 5 μL) was added for 1 hr prior to detection in a fluorescence microplate reader (Varioskan® Flash, Thermo Scientific). In all cases, the site-specific protease cleaves non-phosphorylated peptide only and eliminates the FRET signal. Phosphorylation levels of each reaction were calculated using the ratio of coumarin emission (donor) over fluorescein emission (acceptor), for which low ratios indicate high phosphorylation and high ratios indicate low phosphorylation levels.

A further series concerns the target GSK 3α enzyme isoform (Homo sapiens (Human), UniProt P49840). In words: GSK 3α enzyme inhibition (FRET, Z-LYTE). It counts as biochemical. The following applies: read-out: IC50 Values for Enzyme Inhibition GSK3α. As for the experimental part: The enzyme inhibitory activities of compounds disclosed herein were determined by FRET using synthetic peptides labelled with both donor and acceptor fluorophores (Z-LYTE, Invitrogen Ltd., Paisley, UK).
The inhibitory activities of test compounds against the GSK 3α enzyme isoform (Invitrogen), were evaluated by determining the level of activation/phosphorylation of the target peptide.
The GSK3-α protein (500 ng/mL, 2.5 μL) was mixed with the test compound (2.5 μL at either 4 μg/mL, 0.4 μg/mL, 0.04 μg/mL, or 0.004 μg/mL) for 2 hr at RT. The FRET peptide (8 μM, 2.5 μL), which is a phosphorylation target for GSK3α, and ATP (40 μM, 2.5 μL) were then added to the enzyme/compound mixture and the resulting mixture incubated for 1 hr. Development reagent (protease, 5 μL) was added for 1 hr prior to detection in a fluorescence microplate reader (Varioskan® Flash, ThermoFisher Scientific).
In all cases, the site-specific protease cleaves non-phosphorylated peptide only and eliminates the FRET signal. Phosphorylation levels of each reaction were calculated using the ratio of coumarin emission (donor) over fluorescein emission (acceptor), for which low ratios indicate high phosphorylation and high ratios indicate low phosphorylation levels.

pIC50: −log10 of the molar value. A value given as a limit tells only on which side of the number the result lay.

Sequence of p38 MAPKα isoform (MAPK14) (Q16539 whole entry, canonical isoform): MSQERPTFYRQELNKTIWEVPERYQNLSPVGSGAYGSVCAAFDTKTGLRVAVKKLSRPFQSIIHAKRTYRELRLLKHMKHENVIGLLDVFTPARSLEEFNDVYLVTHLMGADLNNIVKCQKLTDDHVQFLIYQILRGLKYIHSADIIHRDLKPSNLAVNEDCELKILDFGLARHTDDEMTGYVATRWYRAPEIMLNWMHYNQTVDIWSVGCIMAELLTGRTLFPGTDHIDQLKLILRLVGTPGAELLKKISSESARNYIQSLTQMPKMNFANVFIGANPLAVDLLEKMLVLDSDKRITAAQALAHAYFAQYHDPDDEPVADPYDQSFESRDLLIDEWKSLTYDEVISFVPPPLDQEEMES
Sequence of p38MAPKγ (MAPK12) (P53778 whole entry): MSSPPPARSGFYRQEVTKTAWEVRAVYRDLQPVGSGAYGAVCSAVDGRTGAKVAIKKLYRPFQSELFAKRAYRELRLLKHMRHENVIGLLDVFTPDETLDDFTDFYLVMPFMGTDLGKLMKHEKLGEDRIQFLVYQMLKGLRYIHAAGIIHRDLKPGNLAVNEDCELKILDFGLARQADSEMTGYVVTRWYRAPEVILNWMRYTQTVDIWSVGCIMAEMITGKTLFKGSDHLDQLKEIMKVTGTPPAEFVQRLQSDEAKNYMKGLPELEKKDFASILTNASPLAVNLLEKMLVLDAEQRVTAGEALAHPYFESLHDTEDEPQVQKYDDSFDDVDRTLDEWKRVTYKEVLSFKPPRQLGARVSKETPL
Sequence of GSK 3α enzyme isoform (P49840 whole entry, canonical isoform): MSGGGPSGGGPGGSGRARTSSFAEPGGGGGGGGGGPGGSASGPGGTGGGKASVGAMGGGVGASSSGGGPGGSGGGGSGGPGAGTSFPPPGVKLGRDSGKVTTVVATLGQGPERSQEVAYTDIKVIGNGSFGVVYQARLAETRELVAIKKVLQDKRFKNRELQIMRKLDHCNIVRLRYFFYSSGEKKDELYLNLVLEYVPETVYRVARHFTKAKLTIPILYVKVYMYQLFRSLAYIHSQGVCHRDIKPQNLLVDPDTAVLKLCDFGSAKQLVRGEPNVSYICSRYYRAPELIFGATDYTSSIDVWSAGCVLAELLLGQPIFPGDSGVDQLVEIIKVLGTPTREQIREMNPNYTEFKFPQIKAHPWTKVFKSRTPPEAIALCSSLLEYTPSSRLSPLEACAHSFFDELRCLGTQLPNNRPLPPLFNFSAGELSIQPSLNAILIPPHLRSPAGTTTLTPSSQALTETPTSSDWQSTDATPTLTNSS

Take `Cc1ccc(-n2nc(C(C)(C)C)cc2NC(=O)Nc2ccc(Oc3ccnc(Nc4ccccc4F)n3)c3ccccc23)cc1` [Example 4, 1-(3-(tert-butyl)-1-(p-tolyl)-1H-pyrazol-5-yl)-3-(4-((2-((2-fluorophenyl)amino)pyrimidin-4-yl)oxy)naphthalen-1-yl)urea]: the pIC50 in series [1] was 6.78; in series [2] it was 6.84; at p38MAPKγ (MAPK12) it was 5.09; on GSK 3α enzyme isoform it was below 4.78. Further, the “MTT Assay Cell viability at time point in d-U937 Cells” value (“MTT Assay Cell viability” below) is “−ve (−ve and +ve indicate the value is below and above respectively, the no significant effect threshold defined as 30% inhibition at 1 μg/mL at the time point indicated)” with d-U937 cells (4 h); “−ve (−ve and +ve indicate the value is below and above respectively, the no significant effect threshold defined as 30% inhibition at 1 μg/mL at the time point indicated)” in the series on d-U937 cells (24 h).

For the compound `Cc1ccc(-n2nc(C(C)(C)C)cc2NC(=O)Nc2ccc(Oc3ccnc(Nc4ccccc4C)n3)c3ccccc23)cc1` [Example 21, 1-(3-(tert-butyl)-1-(p-tolyl)-1H-pyrazol-5-yl)-3-(4-((2-(o-tolylamino)pyrimidin-4-yl)oxy)naphthalen-1-yl)urea], the pIC50 in series [1] is 7.48; in series [2], 7.44; against p38MAPKγ (MAPK12), below 5.78; on GSK 3α enzyme isoform, below 5.78. Moreover, the “MTT Assay Cell viability” value is “−ve (−ve and +ve indicate the value is below and above respectively, the no significant effect threshold defined as 30% inhibition at 1 μg/mL at the time point indicated)” in the series on d-U937 cells (4 h); “−ve (−ve and +ve indicate the value is below and above respectively, the no significant effect threshold defined as 30% inhibition at 1 μg/mL at the time point indicated)” in the series on d-U937 cells (24 h).

Take `Cc1ccc(-n2nc(C(C)(C)C)cc2NC(=O)Nc2ccc(Oc3ccnc(Nc4ccc(F)cc4)n3)c3ccccc23)cc1` [Example 23, 1-(3-(tert-butyl)-1-(p-tolyl)-1H-pyrazol-5-yl)-3-(4-((2-((4-fluorophenyl)amino)pyrimidin-4-yl)oxy)naphthalen-1-yl)urea]: the pIC50 in series [1] is 6.67; in series [2], 8.38; against p38MAPKγ (MAPK12), below 5.78; at GSK 3α enzyme isoform, below 5.78. Further, the “MTT Assay Cell viability” value was “−ve (−ve and +ve indicate the value is below and above respectively, the no significant effect threshold defined as 30% inhibition at 1 μg/mL at the time point indicated)” with d-U937 cells (4 h); “−ve (−ve and +ve indicate the value is below and above respectively, the no significant effect threshold defined as 30% inhibition at 1 μg/mL at the time point indicated)” with d-U937 cells (24 h).

Take `Cc1ccc(-n2nc(C(C)(C)C)cc2NC(=O)Nc2ccc(Oc3ccnc(Nc4ccc(O)cc4Cl)n3)c3ccccc23)cc1` [Example 31, 1-(3-(tert-butyl)-1-(p-tolyl)-1H-pyrazol-5-yl)-3-(4-((2-((2-chloro-4-hydroxyphenyl)amino)pyrimidin-4-yl)oxy)naphthalen-1-yl)urea]: the pIC50 in series [1] was 6.93; in series [2], 7.10; against p38MAPKγ (MAPK12), below 5.80; on GSK 3α enzyme isoform it was below 5.80. Moreover, the “MTT Assay Cell viability” value was “−ve (−ve and +ve indicate the value is below and above respectively, the no significant effect threshold defined as 30% inhibition at 1 μg/mL at the time point indicated)” in the series on d-U937 cells (4 h); “−ve (−ve and +ve indicate the value is below and above respectively, the no significant effect threshold defined as 30% inhibition at 1 μg/mL at the time point indicated)” in the series on d-U937 cells (24 h).

On to `Cc1ccc(-n2nc(C(C)(C)C)cc2NC(=O)Nc2ccc(Oc3ccnc(Nc4ccccc4C(C)C)n3)c3ccccc23)cc1` [Example 20, 1-(3-(tert-butyl)-1-(p-tolyl)-1H-pyrazol-5-yl)-3-(4-((2-((2-isopropylphenyl)amino)pyrimidin-4-yl)oxy)naphthalen-1-yl)urea], for which the pIC50 was 8.05 in series [1], 7.80 in series [2], below 4.80 against p38MAPKγ (MAPK12) and below 4.80 at GSK 3α enzyme isoform. Further, the “MTT Assay Cell viability” value is “−ve (−ve and +ve indicate the value is below and above respectively, the no significant effect threshold defined as 30% inhibition at 1 μg/mL at the time point indicated)” with d-U937 cells (4 h); “−ve (−ve and +ve indicate the value is below and above respectively, the no significant effect threshold defined as 30% inhibition at 1 μg/mL at the time point indicated)” in the series with d-U937 cells (24 h).

In the case of `Cc1ccc(Nc2nccc(Oc3ccc(NC(=O)Nc4cc(C(C)(C)C)nn4-c4ccc(C)cc4)c4ccccc34)n2)cc1` [Example 11, 1-(3-(tert-butyl)-1-(p-tolyl)-1H-pyrazol-5-yl)-3-(4-((2-(p-tolylamino)pyrimidin-4-yl)oxy)naphthalen-1-yl)urea], the pIC50 in series [1] was 6.45; in series [2] it was 7.96; against p38MAPKγ (MAPK12), below 4.78; on GSK 3α enzyme isoform it was below 4.78. For the same compound, the “MTT Assay Cell viability” value in the series with d-U937 cells (4 h) was “−ve (−ve and +ve indicate the value is below and above respectively, the no significant effect threshold defined as 30% inhibition at 1 μg/mL at the time point indicated)”; with d-U937 cells (24 h), “−ve (−ve and +ve indicate the value is below and above respectively, the no significant effect threshold defined as 30% inhibition at 1 μg/mL at the time point indicated)”.

Turning to `CC(C)(C)c1cc(NC(=O)Nc2ccc(Oc3ccnc(Nc4ccccc4)n3)c3ccccc23)n(-c2ccc(O)cc2)n1` [Example 3, 1-(3-(tert-butyl)-1-(4-hydroxyphenyl)-1H-pyrazol-5-yl)-3-(4-((2-(phenylamino)pyrimidin-4-yl)oxy)naphthalen-1-yl)urea], the pIC50 in series [1] is 6.76; in series [2], 8.39; against p38MAPKγ (MAPK12) it was 5.82; at GSK 3α enzyme isoform, 5.60. Moreover, the “MTT Assay Cell viability” value was “−ve (−ve and +ve indicate the value is below and above respectively, the no significant effect threshold defined as 30% inhibition at 1 μg/mL at the time point indicated)” in the series with d-U937 cells (4 h); “−ve (−ve and +ve indicate the value is below and above respectively, the no significant effect threshold defined as 30% inhibition at 1 μg/mL at the time point indicated)” in the series on d-U937 cells (24 h).

The values are drawn from patent US9724347B2, “1-pyrazolyl-3-(4-((2-anilinopyrimidin-4-yl)oxy)napththalen-1-yl) ureas as P38 MAP knase inhibitors” (Respivert Ltd., priority 2011, dated 2017).
